Results reported in PMC4663524 (Toxins, 2015).
Values joined by “and” are separate entries in the source; they are usually repeats but may differ in a detail not shown here. Equal entries are not always repeated.

Key:
[1] = cited from earlier work
[2] = Clinical symptoms after intravenous or oral bolus; type: in vivo, pigs; details: for clinical symptoms: pigs, after single bolus
Method: (§1) The experiment was designed as a kinetic study. […] Due to the instability of DONS 2 and 3 upon evaporation to dryness, the standards of the three DONS were dissolved in water acidified with 2% formic acid.
(§2) A total of 16 castrated male pigs, crossbred German Landrace × Pietrain, were used for these kinetic experiments. After an adaption phase to the balance cages, eight animals underwent surgery per trial. Animals were equipped with two permanent intravenous catheters in the external vena jugularis for serial blood sampling. After surgery the animals were allowed to recover for one day. On test day, zero blood samples had to be collected from pigs before exposure. Zero blood samples served as reference values to which the data after oral or intravenous bolus related. Serial blood samples (10 mL) were drawn prior to feeding and after 15, 30, 60 and 90 min and then after two, three, four, six, eight, 10, 12, and 24 h for pigs receiving compounds by oral administration. For pigs dosed intravenously, shorter time intervals were chosen at the beginning: five, 10, 15, 20, 30, 45 min and then following the same intervals as for oral exposure. For a clear classification in result Table 1, Table 2, Table 3, Table 4, Table 5 and Table 6, we differentiated between IV- (intravenous bolus) and O- (oral bolus) animals. Due to repeated use of individuals it was numbered continuously.

[3] = DONS/DON pattern in standard solution, bolus solution and pig plasma; type: physicochemical; details: for Proportion in bolus solution: DONS standard mixed with physiological saline for IV bolus (pH 2.66); for Proportion in standard solution: DONS standard solution (pH 1.56); for Proportion in pig plasma: after IV 50 µg DONS mixture/kg BW
Method: (§3) Two different injection solutions were prepared for IV administration. […] After weighing, an individual amount was drawn up into syringes with a dose of 50 µg/kg BW. The concentrations of DONS 1, 2, and 3 in DONS standard solution were 3240, 1720, and 7300 µg/mL, respectively. […] Thereafter, the standard was mixed with physiological saline to prepare a 250 µg/mL DONS stock solution. The further handling was similar to DON.
Due to known dependency of DONS stability on pH value, we compared the pH of standard and bolus solutions. The determination was carried out with a pH meter (WTW GmbH, Weilheim, Germany). Both an addition of physiological saline and distilled water caused changes in pH value, and so shifts in DONS ratio took place.
(§4) For quantitative determination of DONS 1, 2, and 3 in plasma, an HPLC-MS/MS analysis was conducted on an Agilent 1200 (Agilent Technologies, Böblingen, Germany) series HPLC system coupled to a 4000 QTrap mass spectrometer (AB Sciex, Foster City, CA, USA). […] The retention times of DONS 1, 2, and 3 were 2.31, 4.71, and 5.88 min, respectively. Tandem mass spectrometric detection was carried out in negative ion mode after electrospray ionization at 600 °C (ion spray voltage: −4500 V). The method was validated in-house for all analytes based on the guidelines of the FDA and European community. Calibration graphs (0.3–480 ng/mL) were prepared and good linearity was achieved (r ≥ 0.99).

[4] = cited from earlier work; remark: listed apart in the source
[5] = Plasma toxicokinetics after a single intravenous bolus (DONiv, DONSiv); type: in vivo, pigs; details: for Vd(area), apparent volume of distribution: DONS 1 or DONS 2, DONSiv 50 µg/kg BW; for peak concentration in plasma (mean of A + B): after DONSiv 50 µg/kg BW; for stability in plasma: after DONSiv injection
Method: as §1, §2, §3, §4
The LOD amounted to 0.22 ng/mL and the LOQ was 0.72 ng/mL.
A + B is the initial concentration at t = 0, i.e., C0, α, and β are the rate constant of distribution or elimination phase, respectively, and t the time (h). The non-linear curve fitting module of the Statistica for the Windows^TM operating system (StatSoft Inc., Tulsa, OK, USA) was used to fit the data to Equations (1) and (2).
Further kinetic parameters were derived from the fitted functions as also described by Prelusky et al.. The half-life was calculated as t1/2α=ln (2)/ka or α for absorption or distribution phase and t1/2β=ln(2)/kel or β for the elimination phase, respectively. […] The apparent volume of distribution by area (Vd(area)) following intravenous application was calculated by Vd(area) = D/AUC⋅t1/2β/ln(2) as an indicator of Vd corresponding to the elimination phase and thus covering large parts of the kinetics.
In addition, in order to evaluate the decomposition of the IV administered DONS mixture the DON-AUC was divided by the sum of individually estimated AUCs for DONS 1 and DONS 2 and declared as F. In each case, the AUCs were corrected for the administered dose.

[6] = cited from earlier work; for pH range of stability: DONS 2: for 24 h
[7] = DONS mixture added to uncontaminated diet
[8] = DON in plasma after DONSiv 50 µg/kg BW, individual pigs IV6-11
[9] = DON in plasma after DONSiv 50 µg/kg BW, mean, n=6
[10] = DON in plasma, IV 50 µg DON/kg BW, individual pigs IV 1-5, listed as DONiv
[11] = DON in plasma, IV 50 µg DON/kg BW, mean, n=5
[12] = DONS 1 or DONS 2 in plasma (DON equivalents), DONSiv 50 µg/kg BW, individual pigs IV6-11
[13] = DONS 1 or DONS 2 in plasma (DON equivalents), DONSiv 50 µg/kg BW, mean, n=6
[14] = DONS 1 or DONS 2 in plasma (DON equivalents), IV 50 µg DONS mixture/kg BW (DONSiv), individual pigs IV6-11
[15] = DONS 1 or DONS 2 in plasma, DONSiv 50 µg/kg BW, individual pigs IV6-11
[16] = DONS 1 or DONS 2 in plasma, DONSiv 50 µg/kg BW, mean, n=6

## CC1=C[C@H]2O[C@@H]3[C@H](O)C[C@](C)([C@@]2(CO)[C@H](O)C1=O)[C@]31CO1 [DON, deoxynivalenol]
[1]
  share of orally-administered DON absorbed in the stomach and the first third of the small intestine: ~90%
[2]; IV 50 µg DON/kg BW
  number of retching and vomiting episodes: between three and nine times
  time of retching and vomiting after bolus: 6 to 16 min
[2]
  clinical symptoms: sickness and emesis within minutes
[2]; listed as DONiv
  clinical symptoms: retching and vomiting
[3]
  Proportion in bolus solution: 19.26%
  Proportion in standard solution: 0%
  Proportion in pig plasma: 10.45%
[4]; IV DON
  initial concentration A + B of DON at t = 0: 46.2–139.9 ng/mL plasma
[4]; oral, DON in wheat
  maximum concentration cmax: 15.2 ng/mL
  tmax: 1.65 h
[4]; single oral dose, DON-contaminated wheat
  total DON bioavailability: 91.5% ± 27.4%
[5]; DON after DONSiv 50 µg/kg BW
  mean maximum concentration of DON in plasma (A + B): 17.33 ng/mL
[5]; [8]
  B: 7.13 ng/mL and 5.49 ng/mL and 5.08 ng/mL and 2.91 ng/mL and 6.48 ng/mL and 3.17 ng/mL
  F, release rate of DON from DONS: 12.5% and 17.3% (2×) and 18.2% and 23.8% and 15.3%
  α, rate constant of distribution phase: 5.02 h⁻¹ and 3.23 h⁻¹ and 4.83 h⁻¹ and 1.72 h⁻¹ and 3.99 h⁻¹ and 2.25 h⁻¹
  β, rate constant of elimination phase: 0.32 h⁻¹ and 0.22 h⁻¹ and 0.34 h⁻¹ and 0.17 h⁻¹ and 0.29 h⁻¹ and 0.27 h⁻¹
[5]; [9]
  A: 12.29 ng/mL
  B: 5.04 ng/mL
  F, release rate of DON from DONS: 17.37%
  α, rate constant of distribution phase: 3.51 h⁻¹
  β, rate constant of elimination phase: 0.27 h⁻¹
[5]; DON in plasma after IV 50 µg DONS mixture/kg BW (DONSiv), individual pigs IV6-11
  A: 12.44 ng/mL and 8.40 ng/mL and 17.13 ng/mL and 12.74 ng/mL and 12.50 ng/mL and 10.51 ng/mL
[5]; DON in plasma, IV 50 µg DON/kg BW, two-compartment fit, individual pigs IV 1-5, listed as DONiv
  A: 136.4 ng/mL and 624.9 ng/mL and 121.9 ng/mL and 56.2 ng/mL and 74.5 ng/mL
[5]; [10]
  B: 96.5 ng/mL and 83.6 ng/mL and 73.5 ng/mL and 64.5 ng/mL and 84.1 ng/mL
  α, rate constant of distribution phase: 7.35 h⁻¹ and 18.74 h⁻¹ and 13.71 h⁻¹ and 3.88 h⁻¹ and 6.29 h⁻¹
  β, rate constant of elimination phase: 0.36 h⁻¹ and 0.33 h⁻¹ and 0.35 h⁻¹ and 0.34 h⁻¹ and 0.38 h⁻¹
[5]; [11]
  A: 202.8 ng/mL
  B: 80.5 ng/mL
  α, rate constant of distribution phase: 9.99 h⁻¹
  β, rate constant of elimination phase: 0.35 h⁻¹

## CC12CC3(O)[C@@H]4O[C@H]([C@H]1S(=O)(=O)O)[C@](CO)([C@H](O)C2=O)[C@@]3(C)C[C@H]4O [DONS 1]
[3]
  Proportion in bolus solution: 69.75%
  Proportion in standard solution: 26.43%
  Proportion in pig plasma: 59.49%
[6]
  pH range of stability: 2–10
[5]; individual pigs IV6-11
  Vd(area), apparent volume of distribution: 0.35 L/kg and 0.48 L/kg and 0.51 L/kg and 0.37 L/kg and 0.44 L/kg and 0.42 L/kg
[5]; mean, n=6
  Vd(area), apparent volume of distribution: 0.4 L/kg
[5]; [12]
  AUC, area under the curve: 179.7 ng·h/mL and 143.2 ng·h/mL and 167.6 ng·h/mL and 187.8 ng·h/mL and 163.4 ng·h/mL and 167.8 ng·h/mL
  B: 74.30 ng/mL and 55.10 ng/mL and 61.46 ng/mL and 75.58 ng/mL and 67.17 ng/mL and 69.69 ng/mL
[5]; [13]
  A: 104.2 ng/mL
  AUC, area under the curve: 168.2 ng·h/mL
  B: 67.2 ng/mL
[5]; [14]
  A: 86.78 ng/mL and 61.27 ng/mL and 60.09 ng/mL and 257.42 ng/mL and 79.19 ng/mL and 80.20 ng/mL
[5]; [15]
  t1/2β, half-life of elimination: 0.87 h and 0.96 h (2×) and 1.18 h and 0.99 h and 0.98 h
  α, rate constant of distribution phase: 11.35 h⁻¹ and 13.56 h⁻¹ and 4.94 h⁻¹ and 20.41 h⁻¹ and 4.55 h⁻¹ and 10.96 h⁻¹
  β, rate constant of elimination phase: 0.80 1/h and 0.72 1/h (2×) and 0.59 1/h and 0.70 1/h and 0.71 1/h
[5]; [16]
  α, rate constant of distribution phase: 11.0 h⁻¹
  β, rate constant of elimination phase: 0.7 h⁻¹
[5]
  peak concentration in plasma (mean of A + B): 171.4 ng/mL
  stability in plasma: stable in plasma
[7]
  detection in plasma after oral DONSpo: rarely, traces of DONS 1 and 2 (<LOQ)

## C[C@H]1[C@H](S(=O)(=O)O)[C@H]2O[C@@H]3[C@H](O)C[C@](C)([C@]24COC1(O)[C@H]4O)[C@]31CO1 [DONS 2]
[3]
  Proportion in bolus solution: 10.69%
  Proportion in standard solution: 14.03%
  Proportion in pig plasma: 28.25%
[6]
  pH range of stability: 2–7
  pH values at which back-formation or degradation to DON is observed: 8–10
[5]; individual pigs IV6-11
  Vd(area), apparent volume of distribution: 0.68 L/kg and 0.96 L/kg and 0.67 L/kg and 1.08 L/kg and 0.53 L/kg and 0.69 L/kg
[5]; mean, n=6
  Vd(area), apparent volume of distribution: 0.8 L/kg
[5]; [12]
  AUC, area under the curve: 81.5 ng·h/mL and 74.6 ng·h/mL and 80.1 ng·h/mL and 78.1 ng·h/mL and 105.8 ng·h/mL and 94.6 ng·h/mL
  B: 32.87 ng/mL and 20.05 ng/mL and 29.84 ng/mL and 19.94 ng/mL and 34.75 ng/mL and 25.99 ng/mL
[5]; [13]
  A: 52.7 ng/mL
  AUC, area under the curve: 85.8 ng·h/mL
  B: 27.2 ng/mL
[5]; [14]
  A: 46.01 ng/mL and 23.41 ng/mL and 43.30 ng/mL and 34.43 ng/mL and 126.49 ng/mL and 42.60 ng/mL
[5]; [15]
  t1/2β, half-life of elimination: 0.77 h (2×) and 0.99 h and 0.74 h and 1.17 h and 0.91 h
  α, rate constant of distribution phase: 12.01 h⁻¹ and 4.93 h⁻¹ and 9.99 h⁻¹ and 4.03 h⁻¹ and 17.39 h⁻¹ and 4.41 h⁻¹
  β, rate constant of elimination phase: 0.90 1/h (2×) and 0.70 1/h and 0.93 1/h and 0.59 1/h and 0.76 1/h
[5]; [16]
  α, rate constant of distribution phase: 8.8 h⁻¹
  β, rate constant of elimination phase: 0.8 h⁻¹
[5]
  peak concentration in plasma (mean of A + B): 79.9 ng/mL
  stability in plasma: stable in plasma
[7]
  detection in plasma after oral DONSpo: rarely, traces of DONS 1 and 2 (<LOQ)
